# Columns and labels:
# Cannabinoid receptor 1 = Cannabinoid receptor 1 (Homo sapiens, UniProt P21554); assay: Negative allosteric modulation of human CB1 receptor expressed in CHO-K1 cells assessed as inhibition of CP55940 induced beta arrestin recruitment preincubated for 30 mins followed by addition of CP55940 for 90 mins by chemiluminescence assay; format: functional, cell-based
# [1] = Apparent permeability of the compound at 10 uM after 5 hrs by PAMPA; format: ADME
# [2] = Ratio of drug level in […] brain to blood at 30mg/kg, ip after 1 hr by HPLC/MS/MS method; format: ADME, organism-based
# [3] = Ratio of drug level in NMRI mouse brain to blood after 2 hrs; format: ADME, tissue-based
# [4] = Cmax in NMRI mouse blood at 10 mg/kg, po; format: ADME, organism-based; design: dose 10 mg/kg, route oral
# [5] = Tmax in NMRI mouse at 10 mg/kg, po; format: ADME, organism-based; settings: in vivo
# [6] = Half life in NMRI mouse at 10 mg/kg, po; format: ADME, organism-based; settings: in vivo
# [7] = AUC (0 to 8 hrs) in NMRI mouse at 10 mg/kg, po; format: ADME, organism-based; design: time < 8 hr, dose 10 mg/kg, route oral; settings: in vivo
# [8] = Half life in human liver microsomes at 3 uM in presence of NADPH by LC-MS/MS analysis; format: ADME, Microsome
# [9] = Ratio of drug level in NMRI mouse brain to blood after 4 hrs; format: ADME, tissue-based
# [10] = Half life in rat liver microsomes at 3 uM in presence of NADPH by LC-MS/MS analysis; format: ADME, Microsome
# Chain of Cannabinoid receptor 1 (P21554 whole entry): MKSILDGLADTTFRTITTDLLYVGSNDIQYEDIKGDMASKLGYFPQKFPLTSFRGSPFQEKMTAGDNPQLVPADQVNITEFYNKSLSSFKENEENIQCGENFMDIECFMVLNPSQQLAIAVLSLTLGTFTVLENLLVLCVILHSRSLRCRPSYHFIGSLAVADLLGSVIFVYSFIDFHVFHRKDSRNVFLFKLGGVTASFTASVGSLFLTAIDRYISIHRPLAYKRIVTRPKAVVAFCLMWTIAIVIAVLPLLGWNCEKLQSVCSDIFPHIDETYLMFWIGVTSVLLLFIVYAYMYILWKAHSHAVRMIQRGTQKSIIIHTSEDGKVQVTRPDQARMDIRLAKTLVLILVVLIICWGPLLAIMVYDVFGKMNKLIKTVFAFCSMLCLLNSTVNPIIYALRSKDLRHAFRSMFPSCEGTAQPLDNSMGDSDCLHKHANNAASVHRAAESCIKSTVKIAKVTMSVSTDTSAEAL
Compound,IC50 (Cannabinoid receptor 1) [nM],further results
CCc1c(C(=O)NCCc2ccc(N3CCCCC3)cc2)[nH]c2ccc(Cl)cc12,2,"Papp at 5 h, 10 µM [1]: 1.23 ×10⁻⁶ cm/s; Kp at 1 h [2]: 1.1"
Cc1c(S(=O)(=O)NCCCN2CCOCC2)[nH]c2ccccc12,> 1000,–
CCc1c(S(=O)(=O)NCCc2ccc(N(C)C)cc2)[nH]c2ccc(Cl)cc12,130,–
O=S(=O)(NCc1ccc(-c2ccc(F)cc2F)cn1)c1cc2cc(Cl)ccc2[nH]1,3,"Papp at 5 h, 10 µM [1]: 53.8 ×10⁻⁶ cm/s; Kp at 2 h [3]: 3.3; Cmax [4]: 848 ng/mL; Tmax [5]: 1 h; half-life [6]: 180 min; AUC(0-t) at 8 h [7]: 4700 ng·h/mL"
Cc1ccc(CNS(=O)(=O)c2[nH]c3ccccc3c2C)cc1,200,half-life at 3 µM [8]: 7 min
CCc1c(S(=O)(=O)NCCc2ccc(N3CCOCC3)cc2)[nH]c2ccc(Cl)cc12,500,half-life at 3 µM [8]: 10 min
Cc1c(S(=O)(=O)NCCN2CCOCC2)[nH]c2ccccc12,> 1000,–
COc1ccc(CNS(=O)(=O)c2cc3ccccc3[nH]2)cc1,200 to 400,half-life at 3 µM [8]: 2 min
O=C(O)c1ccc(-c2ccc(CNS(=O)(=O)c3cc4ccccc4[nH]3)cc2)cc1,> 1000,–
Cc1c(S(=O)(=O)NCc2ccc(Cl)cc2)[nH]c2ccccc12,400,–
COc1ccc(CNS(=O)(=O)c2cc3cc(OC)ccc3[nH]2)cc1,400,–
O=S(=O)(NCc1ccc(-c2ccc(F)cc2)cc1F)c1cc2cc(Cl)ccc2[nH]1,21,half-life at 3 µM [8]: 146 min; half-life at 3 µM [10]: 112 min
Cc1c(S(=O)(=O)NCCc2ccc(N3CCCCC3)cc2)[nH]c2ccccc12,200,–
Cc1c(S(=O)(=O)NCc2cccc(Cl)c2)[nH]c2ccccc12,800,–
COc1ccc2[nH]c(S(=O)(=O)NCc3ccc(-c4ccc(OC(F)(F)F)cc4)cc3F)cc2c1,40,half-life at 3 µM [10]: < 15 min
COc1ccc(CNS(=O)(=O)c2[nH]c3ccccc3c2C)cc1,200,–

Compound,IC50 (Cannabinoid receptor 1) [nM],further results
COc1ccc(CNS(=O)(=O)c2[nH]c3ccc(Cl)cc3c2C)cc1,500,–
Cc1c(S(=O)(=O)NCc2ccc(C(F)(F)F)cc2)[nH]c2ccccc12,250,–
Cc1c(S(=O)(=O)NCCc2ccccc2)[nH]c2ccccc12,200 to 1000,half-life at 3 µM [8]: 3 min
Cc1c(S(=O)(=O)NCC2CCCCC2)[nH]c2ccccc12,> 1000,–
Cc1c(S(=O)(=O)NCCc2ccc(N3CCOCC3)cc2)[nH]c2ccccc12,> 1000,–
Cc1c(S(=O)(=O)NCc2ccccn2)[nH]c2ccccc12,> 1000,–
Cc1cc(-c2ccc(F)cc2)ccc1CNS(=O)(=O)c1cc2cc(Cl)ccc2[nH]1,> 1000,–
Cc1c(S(=O)(=O)NCc2ccccc2)[nH]c2ccccc12,> 1000,–
Cc1c(S(=O)(=O)NCc2cccnc2)[nH]c2ccccc12,> 1000,–
Cc1c(S(=O)(=O)NCCc2ccc(N(C)C)cc2)[nH]c2ccccc12,300,half-life at 3 µM [8]: 13 min
CCc1c(S(=O)(=O)NCCc2ccc(N3CCCCC3)cc2)[nH]c2ccc(Cl)cc12,120,half-life at 3 µM [8]: 14 min
O=S(=O)(NCc1ccc(-c2ccc(F)cc2F)cn1)c1cc2cc(Br)ccc2[nH]1,4,half-life at 3 µM [8]: 53 min; half-life at 3 µM [10]: 33 min
CCc1c(S(=O)(=O)NCc2ccc(Cl)cc2)[nH]c2ccc(Cl)cc12,> 1000,–
Cc1cc(CNS(=O)(=O)c2cc3cc(Cl)ccc3[nH]2)ccc1-c1ccc(F)cc1,> 1000,–
Cc1c(S(=O)(=O)NCc2ccc(Cl)c(Cl)c2)[nH]c2ccccc12,800,–

# Continued, in another order:
IC50 (Cannabinoid receptor 1) [nM],Compound,further results
3,CN(C)c1ccc(-c2ccc(CNS(=O)(=O)c3cc4ccccc4[nH]3)cc2)cc1,–
15,CS(=O)(=O)c1ccc(-c2ccc(CNS(=O)(=O)c3cc4ccccc4[nH]3)cc2)cc1,–
5,O=S(=O)(NCc1ccc(-c2ccccc2)cc1)c1cc2ccc(F)cc2[nH]1,–
137,O=S(=O)(NCc1cccc(-c2ccc(F)cc2)c1)c1cc2ccccc2[nH]1,–
4,O=S(=O)(NCc1ccc(-c2ccc(F)nc2F)cc1)c1cc2cc(Cl)ccc2[nH]1,"Papp at 5 h, 10 µM [1]: 141 ×10⁻⁶ cm/s; Cmax [4]: 672 ng/mL; Tmax [5]: 4 h; half-life [6]: 474 min; AUC(0-t) at 8 h [7]: 4380 ng·h/mL; Kp at 4 h [9]: 0.8"
10,CCOc1ccc(-c2ccc(CNS(=O)(=O)c3cc4ccccc4[nH]3)cc2)cn1,–
9,O=S(=O)(NCc1ccc(-c2ccc(F)cc2)cn1)c1cc2cc(Br)ccc2[nH]1,half-life at 3 µM [10]: 25 min
300,NC(=O)c1cccc(-c2ccc(CNS(=O)(=O)c3cc4ccccc4[nH]3)cc2)c1,–
3,COc1ccc2[nH]c(S(=O)(=O)NCc3ccc(-c4ccc(F)nc4)cc3)cc2c1,half-life at 3 µM [8]: < 15 min; half-life at 3 µM [10]: < 15 min
12,O=S(=O)(NCc1ccc(-c2ccccc2)cc1)c1[nH]c2ccccc2c1CO,–
4,O=S(=O)(NCc1ccc(-c2ccc(F)cc2F)cc1)c1cc2cc(Cl)ccc2[nH]1,half-life at 3 µM [8]: 111 min; half-life at 3 µM [10]: 84 min
112,COc1ccc2[nH]c(S(=O)(=O)NCc3ccc(-c4ccc(CO)cc4)cc3)cc2c1,–
2,O=S(=O)(NCc1ccc(-c2ccccc2)cc1)c1cc2ccccc2[nH]1,–
6,O=S(=O)(NCc1ccc(-c2ccccc2)cc1)c1cc2cc(Br)ccc2[nH]1,half-life at 3 µM [10]: < 15 min
10,COCc1c(S(=O)(=O)NCc2ccc(-c3ccccc3)cc2)[nH]c2ccccc12,–
8,COc1ccc2[nH]c(S(=O)(=O)NCc3ccc(-c4ccc(C#N)cc4)cc3)cc2c1,half-life at 3 µM [10]: 26 min
41,CC(NS(=O)(=O)c1cc2ccccc2[nH]1)c1ccc(-c2ccc(F)cc2)cc1 (configuration not stated),–
7,O=S(=O)(NCc1ccc(-c2cccnc2)cc1)c1cc2ccccc2[nH]1,half-life at 3 µM [10]: < 15 min
1,O=S(=O)(NCc1ccc(-c2ccc(F)cc2)cc1)c1cc2ccccc2[nH]1,half-life at 3 µM [10]: < 15 min
12,O=S(=O)(NCc1ccc(-c2ccc(F)cc2)cc1)c1cc2cc(Br)ccc2[nH]1,half-life at 3 µM [10]: 130 min
15,CS(=O)(=O)c1ccc(-c2ccc(CNS(=O)(=O)c3cc4cc(Cl)ccc4[nH]3)cc2)cc1,half-life at 3 µM [8]: 41 min; half-life at 3 µM [10]: 36 min
85,Nc1ccc(-c2ccc(CNS(=O)(=O)c3cc4cc(Cl)ccc4[nH]3)cc2)cn1,–
3,Cc1ccc(-c2ccc(CNS(=O)(=O)c3cc4ccccc4[nH]3)cc2)cc1,–
5,O=S(=O)(NCc1ccc(-c2ccc(F)nc2)cc1)c1cc2ccc(Cl)cc2[nH]1,half-life at 3 µM [8]: 22 min; half-life at 3 µM [10]: 23 min; Kp at 2 h [3]: 2.7
4,O=S(=O)(NCc1ccc(-c2ccccc2)cc1)c1cc2ccc(Cl)cc2[nH]1,half-life at 3 µM [10]: < 15 min
12,O=S(=O)(NCc1ccc(-c2ccsc2)cc1)c1cc2ccccc2[nH]1,–
33,COc1cc(-c2ccc(CNS(=O)(=O)c3cc4ccccc4[nH]3)cc2)ccc1O,–
2,COc1ccc(-c2ccc(CNS(=O)(=O)c3cc4ccccc4[nH]3)cc2)cc1,–
8,Cc1c(S(=O)(=O)NCc2ccc(-c3ccccc3)cc2)[nH]c2ccccc12,–
22,COc1ccc(-c2ccc(CNS(=O)(=O)c3cc4ccccc4[nH]3)cc2)c(OC)c1,–
